Test results reported in publication PMC6718442, “11β-Hydroxysteroid dehydrogenases control access of 7β,27-dihydroxycholesterol to retinoid-related orphan receptor γ” (Journal of Lipid Research, 2019).
“And” between values parts separate entries of the source, which are not always exact repeats. Equal values may be shown once.

What was measured:
11β-HSD2 = molecular target: T1, 11β-HSD2 (Homo sapiens, UniProt P80365); test: 11β-HSD2-dependent metabolism of 7-oxygenated 27OHCs in intact HEK-293 cells expressing 11β-HSD2; type: cell-based; conditions: for Metabolism by 11β-HSD2 in intact cells (in words): 500 nM substrate, 30 min
T1 construct: expressed in transfected cells
T1 sequence (P80365 1-405): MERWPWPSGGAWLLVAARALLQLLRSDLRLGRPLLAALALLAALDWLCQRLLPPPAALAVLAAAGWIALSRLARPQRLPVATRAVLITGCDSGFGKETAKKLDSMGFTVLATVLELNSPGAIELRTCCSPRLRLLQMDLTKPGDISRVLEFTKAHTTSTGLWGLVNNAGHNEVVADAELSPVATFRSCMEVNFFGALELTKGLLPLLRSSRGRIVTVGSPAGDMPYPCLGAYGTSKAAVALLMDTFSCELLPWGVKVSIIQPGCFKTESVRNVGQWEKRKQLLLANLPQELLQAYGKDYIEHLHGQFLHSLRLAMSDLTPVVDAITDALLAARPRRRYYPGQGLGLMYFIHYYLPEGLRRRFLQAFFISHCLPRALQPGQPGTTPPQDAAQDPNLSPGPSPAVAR
Protocol: Fifty thousand stably transfected HEK-293 cells expressing either 11β-HSD2 [clone AT8 ([34])] or 11β-HSD1 and hexose-6-phosphate dehydrogenase (H6PDH) [clone HHH7 ([35])] were seeded in poly-L-lysine-coated 96-well plates and incubated for 24 h. H6PDH provides the cofactor NADPH and is required for an efficient oxoreduction reaction by 11β-HSD1 ([36]). The medium was changed to steroid- and phenol red-free DMEM (DMEM SF) for another 2 h and the cells were then treated with 1 μM of 7k27OHC in the presence or absence of 1 μM of T0504 (to inhibit 11β-HSD1) or 0.5 μM of 7β27OHC or 7α27OHC in the presence or absence of 5 μM of glycyrrhetinic acid (GA) (to inhibit 11β-HSD2). Metabolic conversion was determined after 0.5 h for 11β-HSD2 and after 1 h for 11β-HSD1.
Ice-cold acetonitrile:isopropanol (7:3, v/v) mixture containing either 100 nM deuterium-labeled 7β27OHC or corticosterone as internal standards were used to extract oxysterols from cell culture supernatants. Additionally, 1.5% (v/v) of a standard solution of the antioxidant butylated hydroxytoluene (BHT) and the peroxide reducing agent triphenylphosphine (TPP) (10 mg BHT and 25 mg TPP in 10 ml ethanol) was added ([37]). In experiments with SW-620 cells, oxysterols were extracted from cell supernatants and cells. The samples were incubated for 30 min at 4°C and 700 rotations per minute, centrifuged (16,000 g, 10 min, 4°C), and the supernatant evaporated to dryness under nitrogen to minimize oxidation from atmospheric oxygen. After reconstitution in 50 μl of methanol:ultra-pure water (1:1, v/v), the samples were again centrifuged (16,000 g, 10 min, 4°C) and the supernatants analyzed. Data (mean ± SD) were obtained from three independent experiments.
An Agilent 1290 Infinity UHPLC binary solvent delivery system including a temperature controlled autosampler and a column oven coupled to an Agilent 6490 triple quadrupole mass spectrometer with a jet stream electrospray ionization interface (AJS-ESI) (Agilent Technologies) was used to analyze oxysterols. […]

mouse 11β-hsd1 = molecular target: T2, mouse 11β-hsd1 (Mus musculus, UniProt P50172); test: Conversion of 7k27OHC by mouse 11β-hsd1 (data not shown)
T2 construct: expressed in transfected cells; host or cells: HEK-293
T2 sequence (P50172 whole entry): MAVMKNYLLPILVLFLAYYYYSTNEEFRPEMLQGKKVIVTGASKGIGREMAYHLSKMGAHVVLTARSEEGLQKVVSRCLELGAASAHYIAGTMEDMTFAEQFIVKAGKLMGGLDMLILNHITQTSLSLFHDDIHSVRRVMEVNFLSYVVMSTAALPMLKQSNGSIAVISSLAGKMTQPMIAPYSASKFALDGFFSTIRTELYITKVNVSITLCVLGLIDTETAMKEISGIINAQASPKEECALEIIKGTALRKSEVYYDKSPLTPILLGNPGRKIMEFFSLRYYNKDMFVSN

SMILES	Metabolism by 11β-HSD2 in intact cells (in words) (11β-HSD2)	Vapp cell intact (11β-HSD2; intact HEK-293 cells, substrate concentration 500 nM)	Conversion by mouse 11β-hsd1 (in words) (mouse 11β-hsd1)
C[C@@H](CO)CCC[C@@H](C)[C@H]1CC[C@H]2[C@@H]3[C@H](O)C=C4C[C@@H](O)CC[C@]4(C)[C@H]3CC[C@]12C [7α27OHC]	lack of 7α27OHC metabolism		
CC(CO)CCC[C@@H](C)[C@H]1CC[C@H]2[C@@H]3[C@@H](O)C=C4C[C@@H](O)CC[C@]4(C)[C@H]3CC[C@]12C (stereo partly drawn) [7β27OHC, 7β,27-dihydroxycholesterol]	exclusive oxidation of 7β27OHC to 7k27OHC	0.6 ± 0.1 nmol·h^−1·mg total protein^−1 and 0.6 ± 0.1^b nmol·h^−1·mg total protein^−1	
CC(CO)CCC[C@@H](C)[C@H]1CC[C@H]2[C@@H]3C(=O)C=C4C[C@@H](O)CC[C@]4(C)[C@H]3CC[C@]12C (stereo partly shown) [7k27OHC, 7-keto,27-hydroxycholesterol]			exclusive conversion of 7k27OHC to 7β27OHC without the formation 7α27OHC
